The text below walks through data of PMC13411385, “Methyl on the Bridge: 2‐Methyl Propellane as Precursor for 1,3‐Substituted 2‐Methylated Bicyclo[1.1.1]Pentanes” (Chemistry (Weinheim an Der Bergstrasse, Germany), 2025).

On the set-up of series [1]: method as in PMID 31894985. To be noted: between 2,2‐difluorobutanol and 2,2‐difluoropentanol; cited from earlier work.
Series [2] is described as follows: octanol‐water partition coefficient (logP) by 19F NMR‐based protocol. The conditions noted are these: for logP: measured octanol‐water partition coefficient, 19F NMR‐based protocol; for increase in lipophilicity on addition of a methyl group: methylated compound vs its nonmethylated analogue (46a vs 46b; 47a vs 47b). Type of series: physicochemical. The text has this: The effect of the added bridge‐methyl group on physicochemical properties was investigated.
Figure 2 Comparison of measured octanol‐water partition coefficients between phenyl, tolyl, BCP, and 2‐MeBCP.

In the case of `CCCC(F)(F)CO` [2,2‐difluoropentanol], in series [1], the ΔlogP is 0.58 logP units.
For the compound `CC1C2CC1(C(F)(F)CO)C2` (stereo not shown) [46a, 2,2‐difluoro‐2‐(2‐methylbicyclo[1.1.1]pentan‐1‐yl)ethan‐1‐ol], in series [2], the logP is 2.11 and the “increase in lipophilicity on addition of a methyl group” value was determined as 0.54 logP units.
`OCC(F)(F)C12CC(C1)C2` [46b, 2‐(bicyclo[1.1.1]pentan‐1‐yl)‐2,2‐difluoroethan‐1‐ol] came in with a log partition coefficient (logP) in series [2] of 1.57.
Turning to `Cc1ccccc1C(F)(F)CO` [47a, 2,2‐difluoro‐2‐(o‐tolyl)ethan‐1‐ol], in series [2], the logP was 2.03 and the “increase in lipophilicity on addition of a methyl group” value is listed as 0.46 logP units.
Regarding `OCC(F)(F)c1ccccc1` [47b, 2,2‐difluoro‐2‐phenylethan‐1‐ol], the logP in series [2] is 1.57.
